According to US20240294551A1 (AMGEN INC., priority 2022, published 2024):
Where two headings read alike, the source gives them in different places.

Settings: 16-membered ring

Compound `Cc1cc2c(cnn2C2CCCCO2)c2c1CCC=CCCC1(O)CCCN(C1)c1nc(OC[C@@]34CCCN3C[C@H](F)C4)nc3c(F)c-2ncc13` (stereo partly drawn) has a ring closure, isolated yield (from C=CCCc1c(C)cc2c(cnn2C2CCCCO2)c1-c1ncc2c(N3CCCC(O)(CCC=C)C3)nc(OC[C@@]34CCCN3C[C@H](F)C4)nc2c1F, rcm bond, Hoveyda-Grubbs II (20 mol%)/TsOH, DCE, 1.6 mM, 80.0 °C) of 71%.

In the case of `Cc1cc2c(cnn2C2CCCCO2)c2c1CCCn1ncc(n1)C1CCCN(C1)c1nc(OC[C@@]34CCCN3C[C@H](F)C4)nc3c(F)c-2ncc13` (stereo partly drawn), the ring closure, isolated yield (from Cc1cc2c(cnn2C2CCCCO2)c(-c2ncc3c(N4CCCC(c5cn[nH]n5)C4)nc(OC[C@@]45CCCN4C[C@H](F)C5)nc3c2F)c1CCCCl, other bond, K2CO3/TBAI, MeCN, 6.9 mM, 85.0 °C) is reported as 31%.

For `O[C@@H]1C[C@@H]2COCCCCc3c(Cl)cc4[nH]ncc4c3-c3ncc4c(nc(OC[C@@]56CCCN5C[C@H](F)C6)nc4c3F)N(C1)C2` (mixture of isomers), the ring closure, isolated yield (from Oc1nc(OC[C@@]23CCCN2C[C@H](F)C3)nc2c(F)c(-c3c(CCCCOC[C@@H]4CNC[C@H](O)C4)c(Cl)cc4[nH]ncc34)ncc12, snar bond, BroP/DIEA, MeCN/DMSO, 4.7 mM, 25.0 °C) was 25%.
